Experimental data published in patent US9181172B2, “Rhein conjugates, preparation method thereof and their uses in producing medicines for treating diabetic nephrosis, intestinal adhesion and osteoarthritis” (priority 2005, dated 2015).

Experiments:
Format in all cases: in vivo
[1] = system: rats; assay: Formation of cotton ball granuloma in rats (Example 59 Test 2)
Protocol: Rats were randomly divided into five groups (model control group, indomethacin group, rhein glucosamine large dose group and low dose group and rhein sodium group). Each group included 10 rats, and built models according to the method in the literature [Xu Shuyun, Methodology in Pharmacological Experiment (the 3rd version): 918]. The rats were administered by medicines from the day when starting the operation. […] The rats were killed in two weeks, and tests were performed according to the methods in the literature, the net weight of granulation was calculated, and t test was used for the intergroup comparison.

[2] = system: rats; assay: Carrageenan-induced acute pleurisy exudation and leukoplania in rats; details: intraperitoneal 10 mg/kg, four hours after carrageenan
Protocol: Forty male rats of 200±20 g weight were selected and divided into five groups, namely, model control group, indomethacin group, rhein sodium group, rhein glucosamine large dose group and small dose group. Eight rats for each group. The rats were administered with medicines by intraperitoneal administration, one hour later, the rats were induced with acute pleurisy by carrageenan according to the method in the literature [Xu Shuyun, Methodology in Pharmacological Experiment (the 3rd version): 916]. Four hours later, the rats were killed and the volume of pleural effusion and total white cell count were measured.

[3] = system: rats; assay: Formation of granuloma in rats (arthritis example, test 4); details: 10 mg/kg intramuscular, two weeks
Protocol: Rats were randomly divided into five groups (model control group, indomethacin group, rhein glucosamine large dose group and small dose group and rhein sodium group). Each group has 10 […]. According to the method in the literature [Xu Shuyun, Methodology in Pharmacological Experiment (the 3rd version): 918], the models were built, and the rats were administered with medicines since the day when starting operations. […] Two weeks later, the rats were killed and test was carried on according to the method in the literature. The net weight of granulation was calculated, and t test was used for the intergroup comparison.

[4] = system: rabbits' ear marginal veins; assay: Safety of hydro-acupuncture injection: irritation of rabbits' ear marginal vein; details: slowly into the vein every two days, three times
Description: In rabbits' ear marginal vein aseptic operation, rhein sodium salt, rhein arginine conjugates and 0.9% sodium chloride injection liquid were slowly filled into the veins respectively every two days for three consecutive times.

[5] = system: mice; assay: Capillary permeability of mice
Protocol: Each group has 12 mice, administration: 0.20 ml/10 g. Mice in the model control group were administrated with isovolumic physiologic saline.

[6] = system: mice; assay: Intestinal propulsion in mice; details: intravenous injection
Protocol: Fifty mice, male, weighting from 18 to 22 g, were randomly divided into five groups, namely, model control group, domperidone group, rhein sodium group, rhein glucosamine large dose group and low dose group.
Each group has 10 mice respectively. The mice were fasted, but water was not prohibited, and then administered with medicines by intravenous injection. After that, tests were carried on immediately according to the methods in the literature[Xu Shuyun, Methodology in Pharmacological Experiment (the 3rd version): 1313]. The intestinal propulsive rates were calculated, and t test was used for the intergroup comparison.

[7] = system: rats; assay: Intestinal adhesion in rats; details: for Rating of adhesion degree 0: number of 12 rats with completely no adhesion; for Rating of adhesion degree 0 / Rating of adhesion degree III / Rating of adhesion degree I / Rating of adhesion degree IV / Rating of adhesion degree II: 7th day; for Rating of adhesion degree III: number of 12 rats with more than two adhering zones; for Rating of adhesion degree I: number of 12 rats with one adhering zone; for Rating of adhesion degree IV: number of 12 rats with organs adhering to abdominal wall directly; for Rating of adhesion degree II: number of 12 rats with two adhering zones
Protocol: Rats were fasted for 12 h and models were built according to the methods in the literature [Xu Shuyun, Methodology in Pharmacological Experiment (the 3rd version): 1335]. The rats were randomly divided into five groups, namely, model control group, dexamethasone group, rhein sodium group, rhein glucosamine large dose group and low dose group. Each group included 12 rats. […] The rats of the model group were administered with the same volume of NS, while the rats of the positive control group were administered with dexamethasone, administered once every two days, dose: 10 mg/kg. The administration volume was the same as the treatment group. The rats were killed on the 7th day and carried on laparotomy. Adhesion degree was classified and scored respectively. The classification and score of the observed index-adhesion degree can refer to the five-grade classification method prepared by Nair, and determine the classification standard, see Schedule 13. Intestinal adhesion classification adopts Ridit analysis. The test results are as follows (Table 14): […]

With `COc1ccc2c(c1)c(CC(=O)O)c(C)n2C(=O)c1ccc(Cl)cc1` [indomethacin] the “net weight of granulation” value ([1]; 10 mg/kg intramuscular, two weeks) was 12.21 ± 2.43 mg, the “Volume of exudation fluid” value [2] was 0.26 ± 0.11 and the WBC [2] was 3.01 ± 1.59 ×109/L. For the same compound, the “Net weight of granulation” value [3] was 12.17 ± 2.49 mg.

For Rhein Arginine Conjugate, the “biopsy of rabbits' ear marginal vein” value [4] was “normal without endothelial injuries, thrombosis and other pharmacological change”, the “irritation on rabbits' ear marginal veins” value ([4]; vs 0.9% sodium chloride) was “no irritation” and the absorbance value ([5]; dosage 12 mg/kg) was 0.476 ± 0.096. For the same compound, the absorbance value ([5]; dosage 24 mg/kg) was 0.455 ± 0.105, the “inhibition of the formation of cotton ball granuloma compared with the model group” value ([1]; ig, large dose and low dose groups, p<0.01) was “significant effect on the inhibition” and the Propulsive rate ([6]; dosage 12 mg/kg) was 53.81 ± 8.9 %. For the same compound, the Propulsive rate ([6]; dosage 24 mg/kg) was 66.47 ± 9.7 %, the “abdominal adhesion ratings compared with the control group” value ([7]; large dose and low dose groups, p<0.05) was “statistical significances” and the “Rating of adhesion degree 0” value ([7]; 6 mg/kg once a day) was 1. For the same compound, the “Rating of adhesion degree 0” value ([7]; 12 mg/kg once a day) was 3, the “Rating of adhesion degree III” value ([7]; 6 mg/kg once a day) was 3 and the “Rating of adhesion degree III” value ([7]; 12 mg/kg once a day) was 2. The “Rating of adhesion degree I” value ([7]; 6 mg/kg once a day) was 4, the “Rating of adhesion degree I” value ([7]; 12 mg/kg once a day) was 5 and the “Rating of adhesion degree IV” value ([7]; 6 mg/kg once a day) was 1. For the same compound, the “Rating of adhesion degree IV” value ([7]; 12 mg/kg once a day) was 0, the “Rating of adhesion degree II” value ([7]; 6 mg/kg once a day) was 3 and the “Rating of adhesion degree II” value ([7]; 12 mg/kg once a day) was 2.
